From paper PMC9079729, “Conservation of the conformational dynamics and ligand binding within M49 enzyme family” (RSC Advances, 2018)
Residues, ends and D or L forms follow the SMILES beside them.

Assays:
yDPP III = target: T1, yDPP III (Saccharomyces cerevisiae, UniProt Q08225); test: Inhibition of DPP III hydrolysis of Arg2-2NA by tynorphin; type: biochemical, yeast (Saccharomyces cerevisiae); conditions: substrate Arg2-2NA, from initial hydrolysis rates, eq. 1
T1 construct: His6 (C); made in house; host or cells: E. coli
T1 sequence (Q08225 1-711): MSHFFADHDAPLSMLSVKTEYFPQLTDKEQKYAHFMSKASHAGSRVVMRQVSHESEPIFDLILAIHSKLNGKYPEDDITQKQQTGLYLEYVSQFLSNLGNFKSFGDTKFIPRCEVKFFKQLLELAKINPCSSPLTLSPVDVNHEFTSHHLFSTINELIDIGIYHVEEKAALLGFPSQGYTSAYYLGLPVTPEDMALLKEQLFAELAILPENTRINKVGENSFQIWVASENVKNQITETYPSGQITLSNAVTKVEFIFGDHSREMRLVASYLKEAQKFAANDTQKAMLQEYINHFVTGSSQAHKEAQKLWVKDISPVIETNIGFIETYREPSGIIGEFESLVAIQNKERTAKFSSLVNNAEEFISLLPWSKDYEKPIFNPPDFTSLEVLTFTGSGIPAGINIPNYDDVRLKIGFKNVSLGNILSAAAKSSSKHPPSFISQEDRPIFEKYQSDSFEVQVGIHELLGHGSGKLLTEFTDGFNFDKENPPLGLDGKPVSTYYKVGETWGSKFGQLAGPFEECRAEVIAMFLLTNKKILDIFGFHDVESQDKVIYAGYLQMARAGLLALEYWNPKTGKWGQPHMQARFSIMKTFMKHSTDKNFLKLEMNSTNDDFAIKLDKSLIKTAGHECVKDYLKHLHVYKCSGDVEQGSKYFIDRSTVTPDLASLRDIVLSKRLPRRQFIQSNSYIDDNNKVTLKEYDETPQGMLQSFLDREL
Procedure: (§1) The Km values for hydrolysis of fluorogenic substrate Arg2-2NA were determined at pH 7.4 (20 mM Tris–HCl buffer) and at 25 °C, from the initial reaction rates as previously described.[26]
(§2) Enzyme inhibition studies with tynorphin were performed using the Arg2-2NA as a substrate, according to Baršun et al.[36] The inhibition constant, Ki, was calculated according to the equation:1 Ki = i/(v0/vi − 1)·Km/(Km + s)where v0 and vi are the initial hydrolysis rates of Arg2-2NA (given in concentration s) catalyzed by DPP III in the absence and presence of inhibitor concentration (i), and Km is the Michaelis constant.

CaDPP III = target: T2, CaDPP III (Caldithrix abyssi, UniProt H1XW48); test: as above; type: biochemical; conditions: substrate Arg2-2NA, from initial hydrolysis rates, eq. 1
T2 construct: made in house; host or cells: E. coli
T2 sequence (H1XW48 19-558): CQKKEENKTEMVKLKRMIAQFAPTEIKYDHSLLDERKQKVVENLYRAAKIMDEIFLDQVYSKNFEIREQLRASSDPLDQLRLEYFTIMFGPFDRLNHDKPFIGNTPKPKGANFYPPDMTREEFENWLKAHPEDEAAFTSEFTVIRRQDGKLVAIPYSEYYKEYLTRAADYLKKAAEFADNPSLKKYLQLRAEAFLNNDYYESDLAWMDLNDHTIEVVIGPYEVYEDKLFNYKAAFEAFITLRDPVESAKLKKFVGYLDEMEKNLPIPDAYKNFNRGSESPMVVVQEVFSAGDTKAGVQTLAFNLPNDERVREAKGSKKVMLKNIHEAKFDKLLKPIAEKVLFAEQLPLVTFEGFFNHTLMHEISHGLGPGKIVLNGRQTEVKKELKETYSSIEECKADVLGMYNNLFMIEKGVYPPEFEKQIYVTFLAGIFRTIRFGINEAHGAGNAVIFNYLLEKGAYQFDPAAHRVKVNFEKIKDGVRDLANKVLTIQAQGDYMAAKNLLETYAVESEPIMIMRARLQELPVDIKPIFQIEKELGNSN
Procedure: as §1, §2

hDPP III = target: T3, hDPP III (Homo sapiens, UniProt Q9NY33); test: biochemical
T3 sequence (Q9NY33 1-737): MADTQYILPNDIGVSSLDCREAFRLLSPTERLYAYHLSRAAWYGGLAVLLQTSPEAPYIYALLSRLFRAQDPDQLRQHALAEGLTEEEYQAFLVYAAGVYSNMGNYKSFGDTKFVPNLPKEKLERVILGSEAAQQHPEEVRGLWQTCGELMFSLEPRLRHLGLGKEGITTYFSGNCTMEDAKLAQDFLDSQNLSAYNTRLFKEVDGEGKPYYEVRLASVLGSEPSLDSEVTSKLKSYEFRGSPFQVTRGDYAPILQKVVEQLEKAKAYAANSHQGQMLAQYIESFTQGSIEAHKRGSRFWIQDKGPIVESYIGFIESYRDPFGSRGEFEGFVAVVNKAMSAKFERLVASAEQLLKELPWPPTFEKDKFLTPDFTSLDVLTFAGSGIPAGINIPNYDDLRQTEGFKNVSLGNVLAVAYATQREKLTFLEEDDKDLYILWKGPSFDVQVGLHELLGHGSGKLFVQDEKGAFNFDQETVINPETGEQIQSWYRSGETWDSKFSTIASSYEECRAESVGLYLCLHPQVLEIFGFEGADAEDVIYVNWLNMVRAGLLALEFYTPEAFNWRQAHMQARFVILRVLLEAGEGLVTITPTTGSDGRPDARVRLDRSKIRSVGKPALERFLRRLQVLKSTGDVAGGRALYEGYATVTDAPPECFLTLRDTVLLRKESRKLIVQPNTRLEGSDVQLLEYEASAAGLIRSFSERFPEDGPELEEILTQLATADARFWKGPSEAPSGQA
Procedure: as §1, §2

BtDPP III = target: T4, BtDPP III (Bacteroides thetaiotaomicron, UniProt Q8A6N1); test: Inhibition of DPP III hydrolysis of Arg2-2NA by tynorphin; type: biochemical; conditions: substrate Arg2-2NA, from initial hydrolysis rates, eq. 1
T4 construct: made in house; host or cells: E. coli
T4 sequence (Q8A6N1 entry or part of it, change not shown): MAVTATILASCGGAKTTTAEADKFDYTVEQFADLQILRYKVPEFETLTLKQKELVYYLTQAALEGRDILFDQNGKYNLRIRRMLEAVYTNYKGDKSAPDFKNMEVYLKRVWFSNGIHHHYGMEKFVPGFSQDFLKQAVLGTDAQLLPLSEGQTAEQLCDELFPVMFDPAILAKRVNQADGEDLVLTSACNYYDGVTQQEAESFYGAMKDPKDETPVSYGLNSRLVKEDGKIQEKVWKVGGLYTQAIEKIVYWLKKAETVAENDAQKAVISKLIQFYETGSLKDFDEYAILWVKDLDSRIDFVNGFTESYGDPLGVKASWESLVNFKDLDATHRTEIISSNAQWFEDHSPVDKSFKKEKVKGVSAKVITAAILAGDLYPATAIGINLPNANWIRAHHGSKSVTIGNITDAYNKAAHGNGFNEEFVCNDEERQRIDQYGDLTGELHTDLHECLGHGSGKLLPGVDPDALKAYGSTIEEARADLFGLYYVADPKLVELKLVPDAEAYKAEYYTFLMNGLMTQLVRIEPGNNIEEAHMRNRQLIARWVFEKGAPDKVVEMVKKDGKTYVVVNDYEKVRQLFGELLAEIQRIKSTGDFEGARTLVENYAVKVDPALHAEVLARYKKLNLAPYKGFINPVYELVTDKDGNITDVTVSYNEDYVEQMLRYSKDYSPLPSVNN

CC(C)[C@H](N)C(=O)N[C@H](C(=O)N[C@@H](Cc1ccc(O)cc1)C(=O)N1CCC[C@H]1C(=O)N[C@@H](Cc1c[nH]c2ccccc12)C(=O)O)C(C)C [tynorphin] (H-VVYPW-OH)
Ki (yDPP III): 470 nM
Ki (CaDPP III): 16800 nM
Ki (hDPP III): 30 nM
Ki (BtDPP III): 980 nM
